Experiments:
Aβ42 [1] = assay: Screening for γ-secretase-modulating activity, Method 2: Aβ42 Alphalisa in supernatant of SKNBE2 cells carrying APP 695 wild type (Table 12c); assay type: cell-based; details: Homo sapiens, Method 2, Table 12c, incubated overnight
In short: (§1)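 SKNBE2 cells expressing wild-type APP695, 10^4 cells/well, exposed to compound overnight at 37 °C; secreted Aβ42 and Aβtotal in supernatant measured by AlphaLISA sandwich immunoassays (Aβ42: C-terminal/N-terminal antibodies; Aβtotal: N-terminal/4G8). IC50 from 4-parameter fit of % untreated control.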

Aβtotal [2] = assay: Screening for γ-secretase-modulating activity, Method 2: Aβtotal Alphalisa in supernatant of SKNBE2 cells carrying APP 695 wild type (Table 12c); assay type: cell-based; details: Homo sapiens, Method 2, Table 12c, incubated overnight
In short: as §1

Aβ42 [3] = assay: Screening for γ-secretase-modulating activity, Method 1: Aβ42 sandwich ELISA in supernatant of SKNBE2 cells carrying APP 695 wild type (Tables 12a, 12b); assay type: cell-based; details: Homo sapiens; Table 12b; Method 1, SKNBE2 cells carrying APP 695 wild type, cell supernatant ELISA; averaged IC50 values, percentage of control vs log concentration
In short: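 SKNBE2 cells expressing wild-type APP695 were treated with compound for 18 h, and secreted Aβ42 in the medium was quantified by sandwich ELISA (C-terminal-selective capture, biotinylated 3D6 detection, TMB read at 450 nm). IC50 came from 4-parameter fits of % inhibition or % of untreated control; toxicity was checked by WST-1.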

Aβtotal [4] = assay: Screening for γ-secretase-modulating activity, Method 1: Aβtotal sandwich ELISA in supernatant of SKNBE2 cells carrying APP 695 wild type (Tables 12a, 12b); assay type: cell-based; details: Homo sapiens; Table 12b; Method 1, SKNBE2 cells carrying APP 695 wild type, cell supernatant ELISA; averaged IC50 values
In short: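 SKNBE2 cells expressing wild-type APP 695 were plated a day ahead, then exposed to compound in Ultraculture with 1% glutamine for 18 hours. Supernatant Aβtotal captured on 6E10 overnight at 4° C, detected with biotinylated 4G8 and streptavidin-peroxidase with a fluorogenic substrate. IC50 from 4-parameter dose-response fits.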

| IC50 (Aβ42 [1]) [µM] | IC50 (Aβtotal [2]) [µM] | melting point [°C] | IC50 (Aβ42 [3]) [µM] | IC50 (Aβtotal [4]) [µM] | Compound |
| --- | --- | --- | --- | --- | --- |
| 0.251 | 6.92 | 165.1 | – | – | COc1cc(Nc2cccn3c(OC)c(-c4ccc(F)cc4)nc23)ccc1-n1cnc(C)n1 [Compound 132] |
| 0.007 | > 10 | 250.3 | – | – | COc1nc(Nc2cccn3c(C)c(-c4ccccc4Cl)nc23)ccc1-n1cnc(C)n1 [Compound 145] |
| 0.166 | 8.32 | 179.3 | – | – | COc1nc(Nc2cc(C(C)C)nn3cc(-c4ccccc4Cl)nc23)ccc1-n1cnc(C)c1 [Compound 163] |
| 0.056 | > 10 | 149.5 | 0.089 | > 10 | COCCc1c(-c2ccc(F)cc2)nc2c(Nc3ccc(-n4cnc(C)n4)c(OC)c3)cccn12 [Compound 127] |
| 0.032 | 6.61 | 127.5 | 0.089 | > 3.02 | COc1cc(Nc2cccn3cc(-c4cc(C#N)ccc4C)nc23)ccc1-n1cnc(C)c1 [Compound 105] |

From patent US8546440B2, “Substituted bicyclic imidazole derivatives as gamma secretase modulators” (Janssen Pharmaceuticals, Inc., priority 2008, dated 2013)
